# Results taken from US20240190904A1, “Heteroaryl compounds as inhibitors of RIP2 kinase, composition and application thereof” (Accro Bioscience (HK) Limited, priority 2021, published 2024).
# Counter-ions that a name gives are not always drawn.
# Tests used:
# RIP2 kinase = RIP2 kinase (Homo sapiens (Human), UniProt O43353); experiment: Binding affinity assay (Kd)
# Protocol: For most assays, kinase-tagged T7 phage strains were prepared in an E. coli host derived from the BL21 strain. E. coli were grown to log-phase and infected with T7 phage and incubated with shaking at 32° C. until lysis. The lysates were centrifuged and filtered to remove cell debris. The remaining kinases were produced in HEK-293 cells and subsequently tagged with DNA for qPCR detection. Streptavidin coated magnetic beads were treated with biotinylated small molecule ligands for 30 minutes at room temperature to generate affinity resins for kinase assays. The liganded beads were blocked with excess biotin and washed with blocking buffer (SeaBlock (Pierce), 1% BSA, 0.05% Tween 20, 1 mM DTT) to remove unbound ligand and to reduce non-specific binding. Binding reactions were assembled by combining kinases, liganded affinity beads, and test compounds in 1× binding buffer (20% SeaBlock, 0.17×PBS, 0.05% Tween 20, 6 mM DTT). Test compounds were prepared as 111× stocks in 100% DMSO. Kds were determined using an 11-point 3-fold compound dilution series with three DMSO control points. All compounds for Kd measurements are distributed by acoustic transfer (non-contact dispensing) in 100% DMSO. The compounds were then diluted directly into the assays such that the final concentration of DMSO was 0.9%. All reactions performed in polypropylene 384-well plate. Each was a final volume of 0.02 ml. The assay plates were incubated at room temperature with shaking for 1 hour and the affinity beads were washed with wash buffer (1×PBS, 0.05% Tween 20). The beads were then re-suspended in elution buffer (1×PBS, 0.05% Tween 20, 0.5 μM nonbiotinylated affinity ligand) and incubated at room temperature with shaking for 30 minutes. The kinase concentration in the eluates was measured by qPCR.
# An 11-point 3-fold serial dilution of each test compound was prepared in 100% DMSO at 100× final test concentration and subsequently diluted to 1× in the assay (final DMSO concentration=1%). Most Kds were determined using a compound top concentration=30,000 nM. If the initial Kd determined was <0.5 nM (the lowest concentration tested), the measurement was repeated with a serial dilution starting at a lower top concentration.
# Binding constants (Kds) were calculated with a standard dose-response curve using the Hill equation: […]
# The Hill Slope was set to −1.
# Curves were fitted using a non-linear least square fit with the Levenberg-Marquardt algorithm.
# [1] = tested on: IL-8 in THP-1 induced by MDP; experiment: THP-1 cell assay, IL-8 ELISA after MDP; format: cell-based; details: for inhibition at 0.01 µM: Homo sapiens, test compounds 10 nM, THP-1, MDP induced
# Protocol: Acute monoblastic and monocytic leukemia (THP-1) was obtained from ATCC (item NO. TIB-202™). The temperature of the sterile incubator is 37˜38° C., the osmotic pressure is 260˜320 mmol/L, the pH range is 7.2˜7.4, and the ratio of carbon dioxide gas is 5%.
# Cells were seeded in 96-well plates. After an hour, cells were incubated with test compounds for 2 hours. MDP (10 μL) was added and incubated for 6 hours. The samples were centrifuged (3000 rmp/min) for 5 minutes. The concentration of IL-8 in the supernatants was detected by IL-8 ELISA.
# [2] = Protein binding test (dialysis), human; format: in vitro ADME
# Protocol: (§1) • 1. Spiking Solutions of Test and Reference Compounds • 1.1 Solution A (0.5 mM): Add 10 μL of 10 mM stock solution into 190 μL of DMSO. • 1.2 Solution B (0.02 mM): Add 8 μL of Solution A into 192 μL of 0.05 M sodium phosphate buffer. The final DMSO concentration in Solution B is 4%. • 2. Preparation of Test and Reference Compounds • 2.1 Preload a 96-well plate with 380 μL aliquots of plasma in the wells designated for plasma and buffer, respectively. • 2.2 Spike 20 μL of Solution B (0.02 mM of test and reference compounds) into the pre-loaded plasma in the 96-well plate. The final test concentration is 1 μM containing 0.2% DMSO. • 3. Dialysis Sample Loading • 3.1 Preparing plasma against buffer system (duplicate): Apply aliquots of 100 μL of blank dialysis buffer to the receiver side of dialysis chambers. Then apply aliquots of 100 μL of the plasma spiked with test and reference compounds to the donor side of the dialysis chambers. • 3.2 Preparing T0 plasma samples for initial concentrations (duplicate): • 3.2.1 Aliquot 25 μL of the plasma spiked with test and reference compounds into a 96-well sample preparation plate as T0 plasma samples • 3.2.2 Mix the aliquots with same volume of blank buffer (50:50, v/v). • 3.2.3 Quench the samples with 200 μL of acetonitrile containing internal standard (IS). • 3.3 Cover the dialysis block with a plastic lid and place the entire apparatus in a shaker (60 rpm) for 5 hours at 37° C. • 3.4 Preparing dialyzed samples after 5-hour incubation: • 3.4.1 Aliquot 25 μL from both the donor sides and receiver sides of the dialysis apparatus into new sample preparation plates and mix the aliquots with same volume of opposite matrixes (blank buffer to plasma and vice versa). • 3.4.2 Quench the samples with 200 μL acetonitrile containing internal standard (IS). Vortex all the samples (from 0 h and 5 h) at 600 rpm for 10 min followed by centrifugation at 5594 g for 15 minutes (ThermoMultifuge×3R). • 3.4.3 Transfer 50 μL of the supernatants to a new 96-well plate and mix the samples with 50 μL of Milli-Q water. Cover the sample plate and store it in a freezer (−20° C.) until LC/MS/MS analysis.
# [3] = Protein binding test (dialysis), rat; format: in vitro ADME
# Protocol: as §1
# [4] = Protein binding test (dialysis), dog; format: in vitro ADME
# Protocol: as §1
# [5] = Pharmacokinetic evaluation in mice; format: in vivo
# Protocol: The mice pharmacokinetic characteristics of compounds were tested by standard protocols. The candidate compounds were made into clear solution for single intravenous injection (i.v.) and suspension for oral administration (p.o.). Intravenous vehicle is 5% DMSO+95% Saline while oral vehicle is 0.5% CMCNa. The experiment used 48 male mice and 24 mice for intravenous at a dose of 2 mg/kg. Plasma samples were collected at 0 h (before dosing) and 0.083 h, 0.25 h, 0.5 h, 1 h, 2 h, 4 h, 8 h, 24 h after dosing. Another 24 mice were orally administrated with a dose of 10 mg/kg. Plasma samples were collected at 0 h (before dosing) and 0.25 h, 0.5 h, 1 h, 2 h, 4 h, 6 h, 8 h, 24 h after dosing.
# Blood samples were placed in tubes containing K2-EDTA and stored on ice until centrifuged. The blood samples were centrifuged at 6800 g for 6 minutes at 2-8° C. within 1 h after collected and stored frozen at approximately −80° C.
# The analytical results were confirmed using quality control samples for intra-assay variation. The accuracy of >66.7% of the quality control samples and 50% of all QC samples at each concentration level were between 80-120% of the known value(s).
# Standard set of parameters including Area Under the Curve (AUC(0-t) and AUC(0-∞)), elimination half-live (T1/2), maximum plasma concentration (Cmax), time to reach maximum plasma concentration (Tmax) were calculated using noncompartmental analysis modules in FDA certified pharmacokinetic program Phoenix WinNonlin 7.0 (Pharsight, USA) by the Study Director.
# [6] = male, mouse, plasma, iv, i.v. 2 mg/kg
# [7] = male, mouse, plasma, po, p.o. 10 mg/kg
# Sequence of RIP2 kinase (O43353 whole entry): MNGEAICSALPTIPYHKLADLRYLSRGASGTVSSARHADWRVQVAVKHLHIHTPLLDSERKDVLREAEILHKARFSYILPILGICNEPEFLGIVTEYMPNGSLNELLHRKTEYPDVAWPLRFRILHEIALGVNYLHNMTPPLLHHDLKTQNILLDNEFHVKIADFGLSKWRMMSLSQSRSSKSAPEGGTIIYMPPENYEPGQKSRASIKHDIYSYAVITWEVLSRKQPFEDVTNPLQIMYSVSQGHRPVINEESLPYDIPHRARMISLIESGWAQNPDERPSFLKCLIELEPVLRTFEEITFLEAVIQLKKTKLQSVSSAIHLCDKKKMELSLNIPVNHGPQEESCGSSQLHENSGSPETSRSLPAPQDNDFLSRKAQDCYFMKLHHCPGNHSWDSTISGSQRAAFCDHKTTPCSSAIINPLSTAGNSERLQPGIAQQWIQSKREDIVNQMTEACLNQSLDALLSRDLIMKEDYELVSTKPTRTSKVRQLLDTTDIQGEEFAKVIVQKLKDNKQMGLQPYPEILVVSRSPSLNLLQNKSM
Compound,Kd (RIP2 kinase),inhibition at 0.01 µM [1],also measured
CP(C)(=O)c1cc2c(Nc3ccc4scnc4c3)ccnc2cc1-c1cn[nH]c1 [A17],,11%,
"CP(C)(=O)c1cc2c(Nc3ccc4scnc4c3)ccnc2cc1OC[C@@H](O)CO [A18, (S)-(4-(benzo[d]thiazol-5-ylamino)-7-(2,3-dihydroxypropoxy)quinolin-6-yl)dimethylphosphine oxide]",,12%,
CP(C)(=O)c1cc2c(Nc3ccc4scnc4c3)ccnc2cc1OC[C@H](O)CO [A19],,13%,
[2H]C([2H])([2H])Oc1cc2nccc(Nc3ccc4scnc4c3)c2cc1P(C)(C)=O [A22],,60%,
"COc1cc2ncc(F)c(Nc3ccc4scnc4c3)c2cc1P(C)(C)=O [A23, (4-(benzo[d]thiazol-5-ylamino)-3-fluoro-7-methoxyquinolin-6-yl)dimethylphosphine oxide]",,5%,
Cc1noc(C)c1-c1cc2nccc(Nc3ccc4scnc4c3)c2cc1P(C)(C)=O [A27],,37%,
COc1cc2nccc(Nc3ccc4scnc4c3F)c2cc1P(C)(C)=O [A28],,63%,
CP(C)(=O)c1cc2c(Nc3ccc4scnc4c3F)ccnc2cc1OC1COC1 [A29],,85%,
"COc1cc2nncc(Nc3ccc4scnc4c3)c2cc1P(C)(C)=O [B2, (4-(benzo[d]thiazol-5-ylamino)-7-methoxycinnolin-6-yl)dimethylphosphine oxide]",,0%,inhibition of IL-8 in THP-1 induced by MDP (in words) ([1]; 10 nM): no effect

# Now from value to molecule, other results behind:
Kd (RIP2 kinase),Compound,inhibition at 0.01 µM [1],also measured
0.028 µM,"CP(C)(=O)c1ccc2nccc(Nc3ccc4scnc4c3)c2c1 [A1, (4-(benzo[d]thiazol-5-ylamino)quinolin-6-yl)dimethylphosphine oxide hydrochloride]",,
0.089 µM,Cc1ccc(O)cc1Nc1ccnc2ccc(P(C)(C)=O)cc12 [A2],,
0.43 µM,CP(C)(=O)c1ccc2nccc(Nc3n[nH]c4ccc(F)cc34)c2c1 [A3],,
0.089 µM,Cc1[nH]nc(Nc2ccnc3ccc(P(C)(C)=O)cc23)c1C [A4],,
0.12 µM,CP(C)(=O)c1ccc2nccc(Nc3cc(O)ccc3F)c2c1 [A5],,
0.0018 µM,CP(C)(=O)c1cc2c(Nc3ccc4scnc4c3)ccnc2cc1OC1CCOC1 (centres unmarked) [A10],51%,
0.003 µM,"Cn1cc(-c2cc3nccc(Nc4ccc5scnc5c4)c3cc2P(C)(C)=O)cn1 [A11, (4-(benzo[d]thiazol-5-ylamino)-7-(1-methyl-1H-pyrazol-4-yl)quinolin-6-yl)dimethylphosphine oxide]",37%,
0.0023 µM,CP(C)(=O)c1cc2c(Nc3ccc4scnc4c3)ccnc2cc1-c1cc[nH]n1 [A12],,
0.0087 µM,CP(C)(=O)c1cc2c(Nc3ccc4scnc4c3)ccnc2cc1F [A20],,
0.0015 µM,CP(C)(=O)c1cc2c(Nc3ccc4scnc4c3)ccnc2cc1OC1CCC1 [A21],,
0.0064 µM,CP(C)(=O)c1cc2c(Nc3ccc4scnc4c3)ccnc2cc1OC(F)F [A25],,"protein binding in human (in words) ([2]; human): moderate; fraction unbound at 5 h, 1 μM ([2]; human plasma, 1 μM): 0.032; protein binding in rat (in words) ([3]; rat): high protein binding; fraction unbound at 5 h, 1 μM ([3]; rat plasma, 1 μM): 0.006; protein binding in dog (in words) ([4]; dog): moderate; fraction unbound at 5 h, 1 μM ([4]; dog plasma, 1 μM): 0.05; plasma exposure and bioavailability in mice (in words) [5]: excellent plasma exposure and bioavailability; AUC [5, 6]: 6.51 µg·h/mL; Vd [5, 6]: 0.59 L/kg; clearance [5, 6]: 0.258 L/h/kg; half-life [5, 6]: 1.6 h; AUC [5, 7]: 68.3 µg·h/mL; Cmax [5, 7]: 19.2 µg/mL; Tmax [5, 7]: 0.7 h; F ([5]; p.o. 10 mg/kg): 210%"
0.012 µM,"CP(C)(=O)c1cc2c(Nc3ccc4scnc4c3)ccnc2cc1C1COC1 [A26, (4-(benzo[d]thiazol-5-ylamino)-7-(oxetan-3-yl)quinolin-6-yl)dimethylphosphine oxide]",,
3.2 µM,"CP(C)(=O)c1cnc2nccc(Nc3ccc4scnc4c3)c2c1 [B1, (5-(benzo[d]thiazol-5-ylamino)-1,8-naphthyridin-3-yl)dimethylphosphine oxide]",,affinity with RIP2 kinase (in words) (RIP2 kinase): low affinity
